From BigSolDB 2.1

O=Cc1cc(C=O)cc(C=O)c1
solubility (mole fraction)
Settings	283.15 K	288.15 K	293.15 K	298.15 K	303.15 K	308.15 K	313.15 K	318.15 K	323.15 K
in 1,4-dioxane	–	0.0135	0.0164	0.0206	0.0249	0.0288	0.0336	0.0372	0.041
in acetone	0.01	0.0112	0.0132	0.0152	0.0191	0.023	0.0265	0.0307	0.035
in acetonitrile	0.00502	0.00616	0.00711	0.00872	0.01	0.0113	0.0137	0.0153	0.0178
in ethanol	0.0018	0.00208	0.00251	0.00297	0.00365	0.00429	0.0052	0.00614	0.00703
in isobutanol	0.000219	0.000308	0.000396	0.000488	0.000917	0.00193	0.00277	0.00387	0.00601
in isopropanol	0.000462	0.000512	0.000605	0.00069	0.000803	0.00147	0.00216	0.00291	0.00363
in methanol	0.00351	0.00442	0.00563	0.00691	0.00858	0.0101	0.0122	0.0142	0.0158
in n-butanol	0.000718	0.000765	0.000864	0.0013	0.00181	0.00242	0.00288	0.0037	0.00565
in n-pentanol	0.00134	0.00153	0.00185	0.00216	0.00244	0.00276	0.00341	0.0042	0.00538
in n-propanol	0.000909	0.00104	0.00131	0.00154	0.00194	0.00243	0.00296	0.00347	0.00405
in sec-butanol	0.000294	0.000394	0.000601	0.000789	0.00101	0.00128	0.00155	0.00206	0.00254
in water	4.1e-05	6.1e-05	8.8e-05	0.000108	0.000132	0.000152	0.00017	0.000185	0.000198
